What all share (assay type): cell-based
For one experiment, the target named is T1, Gal-4 hPPARγ (Homo sapiens, UniProt P37231).
T1 construct: Plasmids pGal4-hPPARα, pGal4-hPPARγ, pGal4-hPPARδ and pG5-TK-pGL3 were constructed as previously described by Staels, Bart, et al., Nature 1998 Jun; 25
T1 sequence (P37231 238-505 limits assumed): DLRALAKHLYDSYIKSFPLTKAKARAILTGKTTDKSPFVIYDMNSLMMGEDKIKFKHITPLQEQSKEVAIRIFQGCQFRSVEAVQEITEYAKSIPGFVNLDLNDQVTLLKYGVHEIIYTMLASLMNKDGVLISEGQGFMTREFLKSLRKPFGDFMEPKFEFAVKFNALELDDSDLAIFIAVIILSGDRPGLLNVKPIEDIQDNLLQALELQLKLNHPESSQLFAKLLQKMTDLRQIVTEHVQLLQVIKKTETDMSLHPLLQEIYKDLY
As to the kind of experiment: Gal4-hPPARγ transient transfection reporter assay in Cos cells. Particulars: luciferase reporter, 24 hours with compound, scale 1-5, read-out: Gal-4 hPPAR γ EC50 (scaled number). On the procedure: (§1) Construction of recombinant plasmids. Plasmids pGal4-hPPARα, pGal4-hPPARγ, pGal4-hPPARδ and pG5-TK-pGL3 were constructed as previously described by Staels, Bart, et al., Nature 1998 Jun. 25; 393 (6687): 790-793, by Staels (Institut Pasteur de Lille, FR).
(§2) Transient transfection assays. Cos cells were seeded in 60-mm dishes at a density of 5.5×10^5 cells/dish in Dulbecco's modified Eagle's medium (DMEM) supplemented with 10% fetal calf serum (FCS) and incubated at 37° C. for 24 hours before transfection. Cells were transfected in Opti-MEM (Gibco; Invitrogen, Carlsbad, Calif.) without FCS for 3 hours at 37° C., using polyethylenimine, with reporter and expression plasmids. The plasmid pBluescript (Stratagene, La Jolla, Calif.) was used as carrier DNA to set the final amount of DNA to 5.5 μg/dish. The pCMV-b-galactosidase expression plasmid was cotransfected as a control for transfection efficiency. Transfection was stopped by the addition of DMEM supplemented with 10% FCS, and cells were then incubated at 37° C. After 16 hours, cells were trypsinized and seeded in 96-well plates at the density of 2×10^4 cells/well and incubated for 6 hours in 10% FCS-containing DMEM. Cells were then incubated for 24 hours in DMEM containing 0.2% FCS and increasing concentrations of the compound tested or vehicle (DMSO). At the end of the experiment, cells were washed once with ice-cold PBS, lysed and the luciferase and b-galactosidase assays were performed in a luminometer and spectrophotomer. Transfection efficiencies were normalized with the b-galactosidase activity assay. Half-maximal effective concentration (EC50) was estimated using Prism software (GraphPad). All transfection experiments were performed at least three times.
(§3) In the following tables, proprietary compound EC50 values for hPPAR α, β, δ and γ are shown. The EC50 value is the concentration of a drug that induces a response halfway between the baseline and maximum, and is commonly used as a measure of drug potency. EC50 values are reported on a scale of 1 through 5, wherein the value scale is defined for each receptor as follows: […]
Background: A reporter such as luciferase makes a cellular process visible.

The target in a further experiment is T2, Gal-4 hPPARβ/δ (Homo sapiens, UniProt Q03181).
T2 construct: Plasmids pGal4-hPPARα, pGal4-hPPARγ, pGal4-hPPARδ and pG5-TK-pGL3 were constructed as previously described by Staels, Bart, et al., Nature 1998 Jun; 25
T2 sequence (Q03181 171-441 limits assumed): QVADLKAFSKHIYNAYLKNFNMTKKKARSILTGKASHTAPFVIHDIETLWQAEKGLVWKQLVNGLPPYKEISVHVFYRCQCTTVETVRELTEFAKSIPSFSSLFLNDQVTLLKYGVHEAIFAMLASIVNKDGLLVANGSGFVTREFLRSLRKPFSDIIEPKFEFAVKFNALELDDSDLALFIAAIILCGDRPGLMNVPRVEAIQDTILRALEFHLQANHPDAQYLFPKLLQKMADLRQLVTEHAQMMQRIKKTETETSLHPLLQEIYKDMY
As to the kind of experiment: Gal4-hPPARδ transient transfection reporter assay in Cos cells. Conditions: luciferase reporter, 24 hours with compound, scale 1-5, read-out: Gal-4 hPPAR β/δ EC50 (scaled number). On the procedure: as §1, §2, §3

In a further experiment the target is T3, Gal-4 hPPARα (Homo sapiens, UniProt Q07869).
T3 construct: Plasmids pGal4-hPPARα, pGal4-hPPARγ, pGal4-hPPARδ and pG5-TK-pGL3 were constructed as previously described by Staels, Bart, et al., Nature 1998 Jun; 25
T3 sequence (Q07869 200-468 limits assumed): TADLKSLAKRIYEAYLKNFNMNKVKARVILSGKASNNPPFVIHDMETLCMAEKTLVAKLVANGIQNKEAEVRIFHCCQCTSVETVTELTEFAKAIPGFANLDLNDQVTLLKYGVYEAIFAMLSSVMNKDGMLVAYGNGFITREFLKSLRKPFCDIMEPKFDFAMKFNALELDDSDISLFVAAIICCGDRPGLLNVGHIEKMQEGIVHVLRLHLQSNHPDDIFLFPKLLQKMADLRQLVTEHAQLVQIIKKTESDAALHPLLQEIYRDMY
As to the kind of experiment: Gal4-hPPARα transient transfection reporter assay in Cos cells. Particulars: luciferase reporter, 24 hours with compound, scale 1-5, read-out: Gal-4 hPPAR α EC50 (scaled number). On the procedure:
as §1, §2, §3

The structures appear in SMILES notation. A value given as a limit tells only on which side of the number the result lay.

For `CC(C)(Sc1ccc(C(=O)OCCc2cn(Cc3ccc(C(C)(C)C)cc3)nn2)cc1)C(=O)O` [Compound 144, 4-(1-Carboxy-1-methyl-ethylsulfanyl)-benzoic acid 2-[1-(4-tert-butyl-benzyl)-1H-1,2,3-triazol-4-yl]-ethyl ester], the EC50 was greater than 1000 nM at Gal-4 hPPARγ, greater than 1000 nM on Gal-4 hPPARβ/δ and 51 to 200 nM at Gal-4 hPPARα.

Take `CCn1c(COC(=O)c2ccc(OC(C)(C)C(=O)O)cc2)nn(Cc2ccc(C(C)(C)C)cc2)c1=O` [Compound 196, 2-(4-(((1-(4-tert-butylbenzyl)-4-ethyl-5-oxo-4,5-dihydro-1H-1,2,4-triazol-3-yl)methoxy)carbonyl)phenoxy)-2-methylpropanoic acid]: the results for the EC50 at Gal-4 hPPARγ, at Gal-4 hPPARβ/δ and at Gal-4 hPPARα were greater than 1000 nM, greater than 1000 nM and 51 to 200 nM, respectively.

For the molecule `CCCn1c(COC(=O)c2ccc(SC(C)(C)C(=O)O)cc2)nn(Cc2ccc(SC(F)(F)F)cc2)c1=O` [Compound 179, 2-methyl-2-(4-(((5-oxo-4-propyl-1-(4-(trifluoromethylthio)benzyl)-4,5-dihydro-1H-1,2,4-triazol-3-yl)methoxy)carbonyl)phenylthio)propanoic acid], the results for the EC50 on Gal-4 hPPARγ, at Gal-4 hPPARβ/δ and at Gal-4 hPPARα were greater than 1000 nM, greater than 1000 nM and 51 to 200 nM, respectively.

`CCCn1c(COC(=O)c2ccc(SC(C)(C)C(=O)O)cc2)nn(Cc2cc(F)cc(F)c2)c1=O` [Compound 218, 2-(4-(((1-(3,5-difluorobenzyl)-5-oxo-4-propyl-4,5-dihydro-1H-1,2,4-triazol-3-yl)methoxy)carbonyl)phenylthio)-2-methylpropanoic acid]: the EC50 on Gal-4 hPPARγ was greater than 1000 nM; at Gal-4 hPPARβ/δ, greater than 1000 nM; at Gal-4 hPPARα, 51 to 200 nM.

As to `CCCCCCn1c(COC(=O)c2ccc(OC(C)(C)C(=O)O)cc2)nn(Cc2ccc(C(F)(C(F)(F)F)C(F)(F)F)cc2)c1=O` [Compound 204, 2-(4-(((4-hexyl-5-oxo-1-(4-(perfluoropropan-2-yl)benzyl)-4,5-dihydro-1H-1,2,4-triazol-3-yl)methoxy)carbonyl)phenoxy)-2-methylpropanoic acid], the EC50 at Gal-4 hPPARγ is greater than 1000 nM; on Gal-4 hPPARβ/δ it was greater than 1000 nM; on Gal-4 hPPARα, 51 to 200 nM.

For `CC(C)(Oc1ccc(C(=O)OCc2cnn(Cc3ccc4c(c3)C(C)(C)CCC4(C)C)c2)cc1)C(=O)O` [Compound 28], the EC50 at Gal-4 hPPARγ was greater than 1000 nM; at Gal-4 hPPARβ/δ, greater than 1000 nM; at Gal-4 hPPARα, 201 to 999 nM.

As to `C[C@@H](OC(=O)c1ccc(SC(C)(C)C(=O)O)cc1)c1cn(Cc2ccc(OC(F)(F)F)cc2)nn1` [Compound 137, 4-(1-Carboxy-1-methyl-ethylsulfanyl)-benzoic acid (R)-1-[1-(4-trifluoromethoxy-benzyl)-1H-1,2,3-triazol-4-yl]-ethyl ester], the EC50 at Gal-4 hPPARγ was greater than 1000 nM; on Gal-4 hPPARβ/δ, greater than 1000 nM; at Gal-4 hPPARα it was 51 to 200 nM.

Take `CCCn1c(COC(=O)c2ccc(SC(C)(C)C(=O)O)cc2)nn(Cc2ccc(F)cc2)c1=O` [Compound 165, 2-(4-(((1-(4-fluorobenzyl)-5-oxo-4-propyl-4,5-dihydro-1H-1,2,4-triazol-3-yl)methoxy)carbonyl)phenylthio)-2-methylpropanoic acid]: the results for the EC50 at Gal-4 hPPARγ, at Gal-4 hPPARβ/δ and on Gal-4 hPPARα were greater than 1000 nM, greater than 1000 nM and 51 to 200 nM, respectively.

Regarding `COc1ccc(Cn2cc(COC(=O)c3ccc(SC(C)(C)C(=O)O)cc3)cn2)cc1` [Compound 8, 2-(4-(((1-(4-methoxybenzyl)-1H-pyrazol-4-yl)methoxy)carbonyl)phenylthio)-2-methylpropanoic acid], the EC50 is greater than 1000 nM at Gal-4 hPPARγ, greater than 1000 nM at Gal-4 hPPARβ/δ and 51 to 200 nM on Gal-4 hPPARα.

In the case of `CCn1c(COC(=O)c2ccc(SC(C)(C)C(=O)O)cc2)nn(Cc2ccc(C(C)(C)C)cc2)c1=O` [Compound 195, 2-(4-(((1-(4-tert-butylbenzyl)-4-ethyl-5-oxo-4,5-dihydro-1H-1,2,4-triazol-3-yl)methoxy)carbonyl)phenylthio)-2-methylpropanoic acid], the EC50 on Gal-4 hPPARγ was greater than 1000 nM; on Gal-4 hPPARβ/δ it was greater than 1000 nM; at Gal-4 hPPARα it was 1 to 50 nM.

As for `CC(C)(Sc1ccc(C(=O)OCc2cnn(Cc3ccc(OC(F)(F)F)cc3)c2)cc1)C(=O)O` [Compound 32, 2-methyl-2-(4-(((1-(4-(trifluoromethoxy)benzyl)-1H-pyrazol-4-yl)methoxy)carbonyl)phenylthio)propanoic acid], the EC50 on Gal-4 hPPARγ was greater than 1000 nM; at Gal-4 hPPARβ/δ, greater than 1000 nM; at Gal-4 hPPARα, 1 to 50 nM.

Take `CC(C)(Sc1ccc(C(=O)OCc2cnn(Cc3ccc4c(c3)C(C)(C)CCC4(C)C)c2)cc1)C(=O)O` [Compound 29, 2-methyl-2-(4-(((1-((5,5,8,8-tetramethyl-5,6,7,8-tetrahydronaphthalen-2-yl)methyl)-1H-pyrazol-4-yl)methoxy)carbonyl)phenylthio)propanoic acid]: the EC50 on Gal-4 hPPARγ was greater than 1000 nM; on Gal-4 hPPARβ/δ, greater than 1000 nM; on Gal-4 hPPARα, 1 to 50 nM.

For the molecule `CC(C)(Sc1ccc(C(=O)OCc2cnn(-c3ccc(C(F)(F)F)cc3)c2)cc1)C(=O)O` [Compound 18, 2-methyl-2-(4-(((1-(4-(trifluoromethyl)phenyl)-1H-pyrazol-4-yl)methoxy)carbonyl)phenylthio)propanoic acid], the EC50 is 201 to 999 nM on Gal-4 hPPARγ, 201 to 999 nM on Gal-4 hPPARβ/δ and 1 to 50 nM on Gal-4 hPPARα.

Regarding `CCCn1c(COC(=O)c2ccc(SC(C)(C)C(=O)O)cc2)nn(Cc2cccc(C(F)(F)F)c2)c1=O` [Compound 176, 2-methyl-2-(4-(((5-oxo-4-propyl-1-(3-(trifluoromethyl)benzyl)-4,5-dihydro-1H-1,2,4-triazol-3-yl)methoxy)carbonyl)phenylthio)propanoic acid], the figures for the EC50 at Gal-4 hPPARγ, at Gal-4 hPPARβ/δ and at Gal-4 hPPARα were greater than 1000 nM, greater than 1000 nM and 51 to 200 nM, respectively.

Turning to `CC(C)(Sc1ccc(C(=O)OCc2cn(Cc3ccc(OC(F)(F)F)cc3)nn2)cc1)C(=O)O` [Compound 73, 2-methyl-2-(4-(((1-(4-(trifluoromethoxy)benzyl)-1H-1,2,3-triazol-4-yl)methoxy)carbonyl)phenylthio)propanoic acid], the EC50 is greater than 1000 nM at Gal-4 hPPARγ, greater than 1000 nM at Gal-4 hPPARβ/δ and 51 to 200 nM at Gal-4 hPPARα.

On to `C[C@@H](OC(=O)c1ccc(SC(C)(C)C(=O)O)cc1)c1cn(Cc2ccc(SC(F)(F)F)cc2)nn1` [Compound 136, 4-(1-Carboxy-1-methyl-ethylsulfanyl)-benzoic acid (R)-1-[1-(4-trifluoromethylsulfanyl-benzyl)-1H-1,2,3-triazol-4-yl]-ethyl ester], for which the EC50 at Gal-4 hPPARγ was 51 to 200 nM; on Gal-4 hPPARβ/δ, greater than 1000 nM; on Gal-4 hPPARα, 1 to 50 nM.

In the case of `CCn1c(COC(=O)c2ccc(SC(C)(C)C(=O)O)cc2)nn(Cc2ccc(C)cc2)c1=O` [Compound 193, 2-(4-(((4-ethyl-1-(4-methylbenzyl)-5-oxo-4,5-dihydro-1H-1,2,4-triazol-3-yl)methoxy)carbonyl)phenylthio)-2-methylpropanoic acid], the EC50 at Gal-4 hPPARγ is greater than 1000 nM; at Gal-4 hPPARβ/δ, greater than 1000 nM; at Gal-4 hPPARα, 51 to 200 nM.

For the origin of these results see patent US20100184815A1 (priority 2008, published 2010).
